Test results published in ChEMBL document CHEMBL5375988, “AcGlcAs: A Novel P53-Targeting Arsenical with Potent Cellular Uptake and Cancer Cell Selectivity” (J Med Chem, 2023).
The source made the active and inactive calls. The rule behind the calls is not given here.

Legend:
[1] = system: NB-4; test: Induction of apoptosis in human NB4 cells assessed as necrotic cells at 27 uM preincubated for 1 hrs followed by replacement with fresh culture medium and measured after 24 hrs by Annexin V-FITC/7AAD staining based flow cytometry assay (reference value: 0.18%); assay type: functional
[2] = system: NCI-H1299; test: Upregulation of PUMA protein expression in human NCI-H1299 cells overexpressing p53-V272M mutant pretreated for 1 hr followed by culturing in fresh medium for 16 hrs by Western blot analysis; assay type: functional, cell-based
[3] = Drug uptake in human MDA-MB-231 cells at 10 uM measured after 10 mins by ICP-MS analysis; assay type: ADME, cell-based; details: mda-mb-231, 10 min
[4] = system: U-937; test: Induction of extrinsic apoptosis in human U-937 cells overexpressing p53-V272M mutant assessed as upregulation of FAS gene expression by RT-qPCR analysis; assay type: functional, cell-based
[5] = Plasma stability in dog assessed as half life at […] measured upto 120 mins by LC-MS analysis; assay type: ADME, cell-free, Canis lupus familiaris
[6] = system: U-937; test: Induction of apoptosis in human U-937 cells harboring p53-V272M mutant assessed as increase in late apoptotic cells at 0.5 to 8 uM pretreated for 1 hr followed by culturing in fresh medium for 24 hrs by Annexin V-FITC/7AAD staining based flow cytometry analysis; assay type: functional, cell-based; details: dose 0.5-8 µM
[7] = target: T1, PML-RARalpha (Homo sapiens) (UniProt P10276+P29590); test: Induction of PML/RARalpha degradation in human NB4 cells assessed as residual protein level at 0.3 uM incubated for 1 hrs followed by replacement with fresh culture medium and measured after 16 hrs by Western blot analysis (reference value: 1); assay type: cell-based
[8] = Drug uptake in human HepG2 cells assessed as fold increase in arsenic accumulation at 10 uM incubated for 10 mins by ICP-MS analysis; assay type: ADME, cell-based; details: hepg2, 10 min
[9] = system: U-937; test: Induction of cell cycle arrest in human U-937 cells overexpressing p53-V272M mutant assessed as upregulation of BTG2 gene expression by RT-qPCR analysis; assay type: functional, cell-based
[10] = target: T1, PML-RARalpha (Homo sapiens); test: Induction of PML/RARalpha degradation in human NB4 cells assessed as downregulation of DLK1 mRNA expression incubated for 1 hrs followed by replacement with fresh culture medium for 6 hrs by RT-qPCR analysis; assay type: cell-based; details: dose 0.3-3 µM
[11] = system: U-937; test: Antitumor activity against GFP-tagged human U-937 cells harboring p53 V272M mutant xenografted in M-NSG mouse assessed as appearance of smaller and lighter spleen at 25 mg/kg, ip administered for 9 days starting from 7 days post inoculation and measured on day 2 and 6; assay type: functional, organism-based; details: time 9.0 day
[12] = system: NB-4; test: Induction of apoptosis in human NB4 cells assessed as late apoptotic cells at 3 uM preincubated for 1 hrs followed by replacement with fresh culture medium and measured after 24 hrs by Annexin V-FITC/7AAD staining based flow cytometry assay (reference value: 3.71%); assay type: functional
[13] = system: U-937; test: Upregulation of p21 mRNA expression in human U-937 cells overexpressing p53-V272M mutant pretreated for 1 hr followed by culturing in fresh medium for 4 hrs by RT-qPCR analysis; assay type: functional, cell-based
[14] = system: HL-60; test: Upregulation of p21 protein expression in human HL-60 cells overexpressing p53-V272M mutant pretreated for 1 hr followed by culturing in fresh medium for 16 hrs by Western blot analysis; assay type: functional, cell-based
[15] = system: HL-60; test: Upregulation of MDM2 protein expression in human HL-60 cells overexpressing p53-V272M mutant pretreated for 1 hr followed by culturing in fresh medium for 16 hrs by Western blot analysis; assay type: functional, cell-based
[16] = system: NCI-H1299; test: Upregulation of CDKN1A mRNA expression in human NCI-H1299 cells overexpressing p53-V272M mutant at 2 uM pretreated for 1 hr followed by culturing in fresh medium for 8 hrs by RT-qPCR analysis; assay type: functional, cell-based
[17] = system: U-937; test: Induction of extrinsic apoptosis in human U-937 cells overexpressing p53-V272M mutant assessed as upregulation of PERP gene expression by RT-qPCR analysis; assay type: functional, cell-based
[18] = target: T1, PML-RARalpha (Homo sapiens); test: Induction of PML/RARalpha degradation in human NB4 cells assessed as downregulation of MPO mRNA expression incubated for 1 hrs followed by replacement with fresh culture medium for 6 hrs by RT-qPCR analysis; assay type: cell-based; details: dose 0.3-3 µM
[19] = system: Cellular tumor antigen p53 (Homo sapiens), P04637 [V272M]; test: Restoration of p53-V272M mutant transcriptional activity on PUMA promoter in human NCI-H1299 cells at 2.5 to 10 uM pretreated with chlorpromazine for 30 mins followed by compound addition for 10 mins and further incubation in fresh medium for 24 hrs by firefly/renilla based luciferase reporter assay; assay type: cell-based; details: dose 2.5-10 µM
[20] = target: T1, PML-RARalpha (Homo sapiens); test: Induction of PML/RARalpha degradation in human NB4 cells assessed as decrease in micropunctuates at 3 uM incubated for 1 hrs followed by replacement with fresh culture medium and measured after 0.5 to 24 hrs by immunofluorescence analysis; assay type: cell-based
[21] = system: NB-4; test: Induction of apoptosis in human NB4 cells assessed as late apoptotic cells at 27 uM preincubated for 1 hrs followed by replacement with fresh culture medium and measured after 24 hrs by Annexin V-FITC/7AAD staining based flow cytometry assay (reference value: 3.71%); assay type: functional
[22] = system: NB-4; test: Induction of apoptosis in human NB4 cells assessed as early apoptotic cells at 3 uM preincubated for 1 hrs followed by replacement with fresh culture medium and measured after 24 hrs by Annexin V-FITC/7AAD staining based flow cytometry assay (reference value: 2.15%); assay type: functional
[23] = system: U-937; test: Cytotoxicity against p53 null human U-937 cells harboring p53 V272M mutant incubated for 48 hrs by CCK-8 assay; assay type: functional, cell-based; details: U-937, 48 h
[24] = target: T1, PML-RARalpha (Homo sapiens); test: Induction of PML/RARalpha degradation in human NB4 cells assessed as downregulation of FCGR1B mRNA expression incubated for 1 hrs followed by replacement with fresh culture medium for 6 hrs by RT-qPCR analysis; assay type: cell-based; details: dose 0.3-3 µM
[25] = system: Cellular tumor antigen p53 (Homo sapiens), P04637 [V272M]; test: Rescue of p53-V272M mutant transcriptional activity on PUMA promoter in human NCI-H1299 cells assessed as fold change in transcriptional activity at 10 uM pretreated for 10 mins to1 hr followed by replacement with fresh culture media and measured after 24 hrs by firefly/renilla based luciferase reporter assay; assay type: cell-based; details: filed as activator, time 10-60 min
[26] = system: Cellular tumor antigen p53 (Homo sapiens), P04637 [V272M]; test: Restoration of p53-V272M mutant transcriptional activity on PUMA promoter in human NCI-H1299 cells harboring siRNA-mediated CLIC1 knockdown incubated for 24 hrs by firefly/renilla based luciferase reporter assay; assay type: cell-based
[27] = system: U-937; test: Induction of extrinsic apoptosis in human U-937 cells overexpressing p53-V272M mutant assessed as upregulation of DR5 gene expression by RT-qPCR analysis; assay type: functional, cell-based
[28] = system: U-937; test: Antitumor activity against GFP-tagged human U-937 cells harboring p53 V272M mutant xenografted in M-NSG mouse assessed as delay in spleen swelling at 25 mg/kg, ip administered for 9 days starting from 7 days post inoculation and measured on day 9 by FACS analysis; assay type: functional, organism-based; details: time 9.0 day
[29] = target: T1, PML-RARalpha (Homo sapiens); test: Induction of PML/RARalpha degradation in human NB4 cells assessed as downregulation of P2RY2 mRNA expression incubated for 1 hrs followed by replacement with fresh culture medium for 6 hrs by RT-qPCR analysis; assay type: cell-based; details: dose 0.3-3 µM
[30] = system: NB-4; test: Induction of apoptosis in human NB4 cells assessed as necrotic cells at 3 uM preincubated for 1 hrs followed by replacement with fresh culture medium and measured after 24 hrs by Annexin V-FITC/7AAD staining based flow cytometry assay (reference value: 0.16%); assay type: functional

T1 sequence (P10276 whole entry, looked up): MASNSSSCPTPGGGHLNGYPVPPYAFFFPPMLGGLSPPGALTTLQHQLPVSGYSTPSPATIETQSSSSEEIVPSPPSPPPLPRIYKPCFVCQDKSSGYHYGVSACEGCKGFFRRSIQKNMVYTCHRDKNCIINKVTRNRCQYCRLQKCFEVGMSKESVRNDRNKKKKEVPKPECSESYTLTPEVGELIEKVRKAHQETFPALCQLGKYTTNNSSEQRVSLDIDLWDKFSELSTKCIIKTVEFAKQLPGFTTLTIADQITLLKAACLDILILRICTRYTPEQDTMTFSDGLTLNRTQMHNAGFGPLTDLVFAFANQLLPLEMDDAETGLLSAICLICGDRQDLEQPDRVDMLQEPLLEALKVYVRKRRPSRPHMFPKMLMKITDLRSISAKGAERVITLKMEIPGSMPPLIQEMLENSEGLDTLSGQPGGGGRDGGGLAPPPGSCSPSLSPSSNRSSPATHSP
T1 sequence (P29590 whole entry, looked up): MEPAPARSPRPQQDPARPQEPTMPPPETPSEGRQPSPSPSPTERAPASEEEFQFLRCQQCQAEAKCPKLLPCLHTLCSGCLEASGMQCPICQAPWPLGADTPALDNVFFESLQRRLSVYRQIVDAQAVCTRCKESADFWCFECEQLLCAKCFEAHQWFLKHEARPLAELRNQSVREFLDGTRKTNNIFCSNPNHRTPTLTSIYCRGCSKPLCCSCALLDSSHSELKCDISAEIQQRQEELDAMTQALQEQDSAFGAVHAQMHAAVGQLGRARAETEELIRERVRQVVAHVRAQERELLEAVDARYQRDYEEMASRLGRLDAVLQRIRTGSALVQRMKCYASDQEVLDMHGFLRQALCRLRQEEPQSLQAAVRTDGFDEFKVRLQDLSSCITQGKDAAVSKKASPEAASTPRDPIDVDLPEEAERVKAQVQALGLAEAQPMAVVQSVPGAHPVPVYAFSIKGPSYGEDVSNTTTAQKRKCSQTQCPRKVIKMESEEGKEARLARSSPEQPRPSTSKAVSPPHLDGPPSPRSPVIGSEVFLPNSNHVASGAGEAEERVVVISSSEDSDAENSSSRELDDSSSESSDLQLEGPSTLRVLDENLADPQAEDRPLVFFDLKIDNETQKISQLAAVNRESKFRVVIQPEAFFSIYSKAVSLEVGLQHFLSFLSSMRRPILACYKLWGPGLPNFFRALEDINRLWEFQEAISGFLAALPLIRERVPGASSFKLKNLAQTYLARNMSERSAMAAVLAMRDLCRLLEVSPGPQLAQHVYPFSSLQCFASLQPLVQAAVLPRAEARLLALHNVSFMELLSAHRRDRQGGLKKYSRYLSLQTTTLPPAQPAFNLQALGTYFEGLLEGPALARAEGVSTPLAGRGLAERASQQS

Structure (SMILES): CC(=O)OC[C@H]1O[C@@H](S[As]2SCCS2)[C@H](OC(C)=O)[C@@H](OC(C)=O)[C@@H]1OC(C)=O
- Activity [1]: 1.3%
- Activity [2]: Active
- Drug uptake [3]: Active
- Activity [4]: Active
- half-life [5]: 3.06 min
- Activity [6]: Active
- Activity [7]: 0.42
- fold change (FC) [8]: 19
- Activity [9]: Active
- Activity [10]: Dose-Dependent Effect
- Activity [11]: Active
- Activity [12]: 4.45%
- Activity [13]: Active
- Activity [14]: Active
- Activity [15]: Active
- Activity [16]: Active
- Activity [17]: inactive
- Activity [18]: Dose-Dependent Effect
- Activity [19]: inactive
- Activity [20]: Active
- Activity [21]: 29%
- Activity [22]: 4.21%
- IC50 [23]: 230 nM
- Activity [24]: Dose-Dependent Effect
- fold change (FC) [25]: 112
- Activity [26]: inactive
- Activity [27]: Active
- Activity [28]: Active
- Activity [29]: Dose-Dependent Effect
- Activity [30]: 0.27%
